Laboratory results as given in ChEMBL document CHEMBL4609981, “Discovery of novel nonpeptide small-molecule NRP1 antagonists: Virtual screening, molecular simulation and structural modification” (Bioorg Med Chem, 2020).
The source made the active and inactive calls. The calls are words filed in the database; no cut-off is given here.

Experiments:
Neuropilin-1 [1] = target: T1, Neuropilin-1 (Homo sapiens, UniProt O14786); assay: Inhibition of biotinylated […] binding to NRP1 (unknown origin) measured after 2 hrs chemiluminescence analysis
T1 sequence (O14786 whole entry): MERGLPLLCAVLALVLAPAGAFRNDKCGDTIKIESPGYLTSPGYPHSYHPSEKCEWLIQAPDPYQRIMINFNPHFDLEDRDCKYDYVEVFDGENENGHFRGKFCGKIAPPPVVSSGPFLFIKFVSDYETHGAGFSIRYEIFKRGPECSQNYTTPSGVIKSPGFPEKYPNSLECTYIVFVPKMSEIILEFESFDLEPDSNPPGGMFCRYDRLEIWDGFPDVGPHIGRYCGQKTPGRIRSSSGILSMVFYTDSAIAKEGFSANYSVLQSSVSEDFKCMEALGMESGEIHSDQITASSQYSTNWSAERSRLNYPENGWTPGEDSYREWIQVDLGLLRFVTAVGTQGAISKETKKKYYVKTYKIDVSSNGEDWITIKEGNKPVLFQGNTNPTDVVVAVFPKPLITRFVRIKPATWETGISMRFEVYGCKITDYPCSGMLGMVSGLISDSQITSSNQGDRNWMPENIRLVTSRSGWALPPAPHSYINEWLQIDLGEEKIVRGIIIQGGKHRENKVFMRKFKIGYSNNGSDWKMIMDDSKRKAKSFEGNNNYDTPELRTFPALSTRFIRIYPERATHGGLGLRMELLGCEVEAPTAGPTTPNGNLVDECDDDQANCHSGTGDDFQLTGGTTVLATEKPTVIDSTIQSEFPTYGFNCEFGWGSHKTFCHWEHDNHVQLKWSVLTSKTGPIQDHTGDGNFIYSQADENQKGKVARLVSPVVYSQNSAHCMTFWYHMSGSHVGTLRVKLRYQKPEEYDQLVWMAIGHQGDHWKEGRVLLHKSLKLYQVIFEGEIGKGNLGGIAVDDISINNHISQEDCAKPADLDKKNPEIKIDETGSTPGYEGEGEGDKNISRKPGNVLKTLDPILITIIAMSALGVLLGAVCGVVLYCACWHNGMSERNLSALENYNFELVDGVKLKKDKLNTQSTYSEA

Neuropilin-1 [2] = target: T1, Neuropilin-1; assay: (§1) Inhibition of recombinant human biotinylated VEGF-165A expressed in HEK293 cells binding to immobilized recombinant full length human FC-tagged NRP1 (chimera active) expressed in HEK293 cells at 50 uM using TMB as substrate incubated for 2 hrs followed by substrate addition by competitive ELISA relative to control
Neuropilin-1 [3] = target: T1, Neuropilin-1; assay: Inhibition of biotinylated VEGF-165A binding to NRP1 (unknown origin) at 10 uM measured after 2 hrs chemiluminescence analysis relative to control
Neuropilin-1 [4] = target: T1, Neuropilin-1; assay: Inhibition of recombinant human biotinylated VEGF-165A expressed in HEK293 cells binding to immobilized recombinant full length human FC-tagged NRP1 (chimera active) expressed in HEK293 cells using TMB as substrate incubated for 2 hrs followed by substrate addition by competitive ELISA
[5] = target: Vascular endothelial growth factor receptor 2 (Homo sapiens) (UniProt P35968); assay: Inhibition of recombinant human biotinylated VEGF-165A expressed in HEK293 cells binding to FC-tagged VEGFR2 (unknown origin) using TMB as substrate incubated for 2 hrs followed by substrate addition by competitive ELISA
Chain of Vascular endothelial growth factor receptor 2 (Homo sapiens) (P35968 whole entry): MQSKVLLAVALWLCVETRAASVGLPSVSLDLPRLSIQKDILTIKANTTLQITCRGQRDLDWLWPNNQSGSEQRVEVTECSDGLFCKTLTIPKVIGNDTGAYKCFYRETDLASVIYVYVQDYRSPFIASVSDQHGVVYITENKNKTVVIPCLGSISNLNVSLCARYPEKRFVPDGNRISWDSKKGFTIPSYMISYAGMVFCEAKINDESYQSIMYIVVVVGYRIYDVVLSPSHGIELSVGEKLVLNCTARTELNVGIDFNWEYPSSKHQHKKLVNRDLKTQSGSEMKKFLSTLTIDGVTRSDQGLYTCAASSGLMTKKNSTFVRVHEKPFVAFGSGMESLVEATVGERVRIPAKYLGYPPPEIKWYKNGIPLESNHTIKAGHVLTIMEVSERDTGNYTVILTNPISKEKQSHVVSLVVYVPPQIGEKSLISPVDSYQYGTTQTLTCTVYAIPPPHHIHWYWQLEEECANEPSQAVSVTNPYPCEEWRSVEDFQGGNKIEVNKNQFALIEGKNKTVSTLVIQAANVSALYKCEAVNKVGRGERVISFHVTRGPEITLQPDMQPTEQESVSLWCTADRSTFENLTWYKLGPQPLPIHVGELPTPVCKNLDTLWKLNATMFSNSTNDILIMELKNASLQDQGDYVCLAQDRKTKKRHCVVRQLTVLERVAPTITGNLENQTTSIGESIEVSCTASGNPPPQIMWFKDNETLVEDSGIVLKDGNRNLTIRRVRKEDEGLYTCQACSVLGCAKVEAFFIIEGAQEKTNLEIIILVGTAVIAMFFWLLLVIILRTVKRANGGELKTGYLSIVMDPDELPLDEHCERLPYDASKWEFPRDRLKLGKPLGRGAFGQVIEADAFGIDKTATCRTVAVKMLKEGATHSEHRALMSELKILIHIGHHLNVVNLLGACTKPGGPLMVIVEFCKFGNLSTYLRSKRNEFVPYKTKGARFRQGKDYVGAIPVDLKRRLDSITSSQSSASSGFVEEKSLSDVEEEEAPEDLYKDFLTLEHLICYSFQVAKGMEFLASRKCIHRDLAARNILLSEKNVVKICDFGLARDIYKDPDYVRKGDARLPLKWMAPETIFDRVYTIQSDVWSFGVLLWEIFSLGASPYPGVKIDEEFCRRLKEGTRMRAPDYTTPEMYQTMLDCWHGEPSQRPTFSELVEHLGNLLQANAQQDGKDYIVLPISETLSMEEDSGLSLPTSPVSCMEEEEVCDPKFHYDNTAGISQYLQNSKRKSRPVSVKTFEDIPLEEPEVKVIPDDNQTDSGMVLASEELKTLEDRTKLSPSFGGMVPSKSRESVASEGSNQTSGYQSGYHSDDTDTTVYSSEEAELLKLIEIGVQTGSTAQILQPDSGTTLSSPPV

Neuropilin-1 [6] = target: T1, Neuropilin-1; assay: as §1, with “11” for “50”

SMILES	inhibition (Neuropilin-1 [2]) [%]	other results
Cc1ccc(-c2nc3ccccc3[nH]2)cc1NC(=S)NC(=O)c1ccc2c(c1)OCCO2	–	IC50 (Neuropilin-1 [1]): 34 µM
CCc1nnc(NC(=O)CSc2nnc(-c3cccnc3)n2-c2cccc(C)c2)s1	0	–
CCc1nnc(NC(=O)CSc2nnc(-c3ccccc3)n2Cc2cccc(C)c2)s1	4.1	–
CCOc1ccccc1NC(=O)c1ccc(C)c(S(=O)(=O)Nc2ccc(C)cc2)c1	–	inhibition (Neuropilin-1 [3]): 32%
CCc1nnc(NC(=O)CSc2nnc(-c3ccccc3)[nH]2)s1	2.1	–
CCCc1nnc(NC(=O)CSc2nnc(-c3ccccc3)n2-c2cccc(C)c2)s1	47.8	–
CCc1nnc(NC(=O)CSc2nnc(Cc3ccccc3)n2-c2cccc(C)c2)s1	4.3	–
CCc1nnc(NC(=O)CSc2nnc(-c3ccccc3)n2-c2ccc(Cl)cc2)s1	3.2	–
CCc1nnc(NC(=O)CSc2nnc(-c3ccc(Cl)cc3)n2-c2cccc(C)c2)s1	37.4	–
COCc1nnc(NC(=O)CSc2nnc(-c3ccccc3)n2-c2cccc(C)c2)s1	10.3	–
CCc1nnc(NC(=O)CSc2nnc(-c3ccc(C)cc3)n2-c2cccc(C)c2)s1	76	IC50 (Neuropilin-1 [4]): 19.1 µM; inhibition [5]: Active
Cc1cccc(-n2c(SCC(=O)Nc3nnc(C)s3)nnc2-c2ccccc2)c1	31.5	–
CCc1nnc(NC(=O)CSc2nnc(-c3ccccc3)n2-c2ccccc2)s1	4.8	–
O=C(CSc1nnc(-c2ccccc2)n1-c1cccc(Cl)c1)Nc1nnc(C2CC2)s1	22.5	–
CCc1nnc(NC(=O)CSc2nnc(-c3ccccc3)n2-c2ccccc2Cl)s1	5.3	–
CCc1nnc(NC(=O)CSc2nnc(-c3ccccc3)n2-c2cccc(F)c2)s1	6	–
CCc1nnc(NC(=O)CSc2nncn2-c2cccc(Cl)c2)s1	0	–
CCc1nnc(NC(=O)CSc2nnc(-c3ccccc3)n2-c2cccnc2)s1	0	–
CCc1nnc(NC(=O)CSc2nnc(-c3cccc(C)c3)n2-c2cccc(C)c2)s1	12.6	–
CCc1nnc(NC(=O)CSc2nnc(-c3ccccc3)n2-c2cccc(OC)c2)s1	0	–
O=C(CSc1nnc(-c2ccccc2)n1-c1cccc(Cl)c1)Nc1nccs1	4	–
CCc1nnc(NC(=O)CSc2nnc(-c3ccc(O)cc3)n2-c2cccc(C)c2)s1	59.9	IC50 (Neuropilin-1 [4]): 41.7 µM
N=C(N)NCCC[C@H](NC(=O)c1sccc1NS(=O)(=O)c1cccc2nsnc12)C(=O)O	–	IC50 (Neuropilin-1 [4]): 11.1 to 12.7 µM; inhibition (Neuropilin-1 [6]): 49.1 to 49.8%; inhibition [5]: Active
CCc1nnc(NC(=O)CSc2nnc(-c3ccccc3)n2-c2cccc(Cl)c2)s1	47.6	–
CCc1nnc(NC(=O)CSc2nnc(-c3ccc(N)cc3)n2-c2cccc(C)c2)s1	15.4	–
CCc1nnc(NC(=O)CSc2nnc(-c3ccccc3)n2-c2cccc(C)c2)s1	66.6	IC50 (Neuropilin-1 [4]): 41.1 µM
O=C(CSc1nnc(-c2ccccc2)n1-c1cccc(Cl)c1)Nc1nncs1	20.3	–
